According to PubChem BioAssay (NCI):
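Briefly, cells in 96-well plates were exposed to five compound concentrations for 48 h, and endpoints were estimated by linear interpolation. TGI is the concentration that stops growth completely.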

Columns and labels:
Test in all cases: inhibition of tumour cell growth, NCI panel, 48 h
HOP-18 NSCLC = system: HOP-18 NSCLC
LXFL 529 NSCLC = system: LXFL 529 NSCLC
DLD-1 colon = system: DLD-1 colon
SNB-75 CNS = system: SNB-75 CNS
XF 498 CNS = system: XF 498 CNS
RXF 393 renal = system: RXF 393 renal
DMS 273 small cell lung = system: DMS 273 small cell lung
M19-MEL melanoma = system: M19-MEL melanoma
RXF-631 renal = system: RXF-631 renal
KM20L2 colon = system: KM20L2 colon
M14 melanoma = system: M14 melanoma
DMS 114 small cell lung = system: DMS 114 small cell lung
SNB-78 CNS = system: SNB-78 CNS
DU-145 prostate = system: DU-145 prostate
MDA-MB-231 breast = system: MDA-MB-231 breast
BT-549 breast = system: BT-549 breast

Structure (SMILES)	TGI (HOP-18 NSCLC) [µM]	TGI (LXFL 529 NSCLC) [µM]	TGI (DLD-1 colon) [µM]	TGI (SNB-75 CNS) [µM]	TGI (XF 498 CNS) [µM]	TGI (RXF 393 renal) [µM]	TGI (DMS 273 small cell lung) [µM]	TGI (M19-MEL melanoma) [µM]	TGI (RXF-631 renal) [µM]	TGI (KM20L2 colon) [µM]	TGI (M14 melanoma) [µM]	TGI (DMS 114 small cell lung) [µM]	TGI (SNB-78 CNS) [µM]	TGI (DU-145 prostate) [µM]	TGI (MDA-MB-231 breast) [µM]	TGI (BT-549 breast) [µM]
Brc1nc2c3ccccc3ncn2c1Br	47.8	> 100	> 100	44.2	46.9	86.1	> 100	> 100	> 100	> 100	> 100	98.4	> 100			
CC(C)(C)c1ccc(Oc2ccc(C#N)c(C#N)c2)c(C(C)(C)C)c1	> 100	> 100	> 100	> 100	35.4	> 95.7	28.5		> 100	> 100	> 100	> 52.2	> 100			
CC12CC(=O)OC(Cc3ccccc31)O2 (configuration not stated)	> 100	> 100	> 100	> 100	> 100	> 100	> 100	> 100		> 100	> 100	> 100	> 100			
N#CC12CCC(O)C(CC1)C2=O (configuration not stated)	> 100		> 100	> 100	> 100	> 100	> 100	> 100	> 100	> 100	> 100	36	> 100			
CN(OC(=O)CC(=O)c1ccccc1)C(=O)Cc1ccccc1		> 100	> 100					> 100	> 100	> 100	> 100	> 100	> 100			
COC(=O)C1=C(O)C(C(=O)OC)[C@]2(O)[C@H](C(=O)OC)[C@H]1C[C@@H](c1ccc(Cl)cc1Cl)[C@H]2C(=O)OC (some centres not stated)				37.2		33.7					19.1			25.7	60	66.6
COP(=N[Si](C)(C)C)(OC)OC				> 100		> 100					> 100			> 100	> 100	> 100
COC(=O)/C=C/COCC1C2CCC(=O)C21 (configuration not stated)				> 100		> 100					> 100			> 100	> 100	> 100
C=CCN1C(=O)/C(=C/c2ccccc2)N=C1SC/C=C/C				> 100		46.7					> 100			> 100	> 100	> 100
O=C(/C=C/c1ccsc1)c1cccs1				> 100		42.9					54.4			> 100	> 100	48
COc1c2c(c(OC)c3c(=O)cc(C/C(=N/NC(=O)C[n+]4ccccc4)C(=O)Nc4cc(C)ccc4C)oc13)OCO2		> 100	> 100	> 100		> 100	> 100	> 100		> 100	> 100	> 100	> 100			
O=C1CSC2(CC(/C=C/c3cccc(Br)c3)=NN2c2cccc(S(=O)(=O)O)c2)N1c1nc2ccccc2s1 (configuration not stated)				> 100		> 100					> 100			> 100	> 100	> 100
Cc1nc2ccc(S(=O)(=O)Nc3ccccn3)cc2c(=O)n1NS(=O)(=O)c1ccccn1				> 100		> 100					> 100			> 100	> 100	> 100
COC1=C(OC)C(=O)c2cc(SC)c(=O)c(SC)cc2C1=O	82.2	29.5	> 100	28.1	15.1	16.8	> 100			> 100	32.6	13.4				
Cc1c2[nH]c3ccc(Br)cc3c2c(C)c2[nH]ccc(=O)c12	22.9		> 100	> 100	29.7		27	29.6			30.9	35.2	35.7			
CCCOP1(=O)C=C(C)C(Cl)=C(C)C1 (configuration not stated)	> 100	42.9	96.3	92.6	31.4	57	36.7	52.7	> 100	88.8	32.5	46.3				
COc1ccccc1/[N+]([O-])=C/c1ccccc1OC(=S)S				> 100		> 100					> 100			> 100	> 100	> 100
CC(SC(=S)N1CCCC1)C(=O)Nc1nnc(-c2ccc(Cl)cc2)o1 (configuration not stated)				> 100		> 100					37.1			> 100	> 100	> 100
CN1NC2=NCCN=C3NN(C)C(=NCCN=C1S2)S3	> 100	> 100	> 100	> 100		> 100	> 100	> 100		> 100	> 100		> 100			
